According to paper doi:10.1101/2023.03.24.534094v2 (biorxiv, 2023):
Read-outs that look alike come from different tables or passages of the source. One block for each compound: values may come before it.

Legend:
EpHA2 (kinase domain) = EpHA2 (kinase domain) (Homo sapiens, UniProt P29317); test: X-ray crystal structure; type: binding; conditions: co-crystal, 293 K
ABL1 [1] = target: T1, ABL1 (Homo sapiens, UniProt P00519); test: biochemical
EpHA2 [2] = target: T2, EpHA2 (Homo sapiens, UniProt P29317); test: biochemical
Target sequence in this assay (P29317 whole entry): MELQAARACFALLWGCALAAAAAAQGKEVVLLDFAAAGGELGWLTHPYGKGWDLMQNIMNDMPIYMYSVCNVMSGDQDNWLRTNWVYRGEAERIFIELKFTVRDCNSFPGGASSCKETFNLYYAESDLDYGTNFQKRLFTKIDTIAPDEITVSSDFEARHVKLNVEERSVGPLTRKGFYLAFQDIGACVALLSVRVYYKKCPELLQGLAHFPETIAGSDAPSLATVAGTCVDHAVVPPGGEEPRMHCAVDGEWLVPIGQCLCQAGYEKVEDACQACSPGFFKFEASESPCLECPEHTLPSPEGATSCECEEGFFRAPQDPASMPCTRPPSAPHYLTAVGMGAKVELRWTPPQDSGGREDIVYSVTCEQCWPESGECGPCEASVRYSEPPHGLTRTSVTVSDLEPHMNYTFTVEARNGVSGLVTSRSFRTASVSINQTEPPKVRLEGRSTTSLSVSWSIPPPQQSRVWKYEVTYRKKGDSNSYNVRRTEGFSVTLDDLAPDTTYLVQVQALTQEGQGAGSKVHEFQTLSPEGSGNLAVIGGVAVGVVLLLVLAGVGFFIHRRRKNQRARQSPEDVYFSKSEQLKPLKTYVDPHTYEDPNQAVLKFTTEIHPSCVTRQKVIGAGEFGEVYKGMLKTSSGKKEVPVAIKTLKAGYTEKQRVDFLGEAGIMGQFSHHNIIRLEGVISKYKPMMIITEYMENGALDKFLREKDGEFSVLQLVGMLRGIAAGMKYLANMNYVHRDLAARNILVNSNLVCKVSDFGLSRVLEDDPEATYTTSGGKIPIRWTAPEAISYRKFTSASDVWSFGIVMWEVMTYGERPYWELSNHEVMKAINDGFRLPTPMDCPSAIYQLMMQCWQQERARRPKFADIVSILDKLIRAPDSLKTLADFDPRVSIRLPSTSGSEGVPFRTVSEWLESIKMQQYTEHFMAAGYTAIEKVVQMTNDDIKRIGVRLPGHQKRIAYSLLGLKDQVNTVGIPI

MER = target: T3, MER (Homo sapiens, UniProt Q12866); test: biochemical
T3 sequence (Q12866 1-999): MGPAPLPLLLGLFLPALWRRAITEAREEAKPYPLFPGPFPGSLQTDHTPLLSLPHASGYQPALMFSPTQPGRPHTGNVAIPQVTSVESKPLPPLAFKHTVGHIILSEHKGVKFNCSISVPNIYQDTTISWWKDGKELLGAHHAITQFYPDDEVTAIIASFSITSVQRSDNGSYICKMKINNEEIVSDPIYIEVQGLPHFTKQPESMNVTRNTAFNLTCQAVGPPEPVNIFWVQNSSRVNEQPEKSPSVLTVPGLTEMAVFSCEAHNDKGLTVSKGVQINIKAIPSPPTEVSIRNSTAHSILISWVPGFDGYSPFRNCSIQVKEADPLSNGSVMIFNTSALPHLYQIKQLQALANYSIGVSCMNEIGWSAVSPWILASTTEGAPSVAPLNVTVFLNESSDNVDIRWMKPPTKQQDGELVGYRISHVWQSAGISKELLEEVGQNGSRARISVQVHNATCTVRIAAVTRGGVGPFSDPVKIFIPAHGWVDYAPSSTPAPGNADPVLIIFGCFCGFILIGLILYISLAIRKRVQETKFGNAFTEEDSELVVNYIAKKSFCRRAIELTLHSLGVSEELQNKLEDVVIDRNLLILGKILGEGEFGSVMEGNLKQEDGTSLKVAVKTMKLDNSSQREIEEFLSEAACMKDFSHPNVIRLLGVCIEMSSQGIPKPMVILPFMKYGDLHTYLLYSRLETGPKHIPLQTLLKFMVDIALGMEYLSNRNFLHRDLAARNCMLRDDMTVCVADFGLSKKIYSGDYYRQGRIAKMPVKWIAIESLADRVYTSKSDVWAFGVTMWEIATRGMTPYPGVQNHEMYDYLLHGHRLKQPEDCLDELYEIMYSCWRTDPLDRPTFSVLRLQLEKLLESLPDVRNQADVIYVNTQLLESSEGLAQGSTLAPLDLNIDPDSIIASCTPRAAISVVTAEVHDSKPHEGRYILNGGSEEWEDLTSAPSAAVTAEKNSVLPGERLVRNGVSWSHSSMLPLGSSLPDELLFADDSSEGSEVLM

EpHA4 = EpHA4 (Homo sapiens, UniProt P54764); test: NanoBRET target engagement; type: cell-based
EpHA5 = EpHA5 (Homo sapiens, UniProt P54756); test: NanoBRET target engagement; type: cell-based
EpHA3 = EpHA3 (Homo sapiens, UniProt P29320); test: NanoBRET target engagement; type: cell-based
EpHB3 = EpHB3 (Homo sapiens, UniProt P54753); test: NanoBRET target engagement; type: cell-based
EpHB2 = EpHB2 (Homo sapiens, UniProt P29323); test: NanoBRET target engagement; type: cell-based
ABL1 [3] = target: T1, ABL1; test: NanoBRET target engagement; type: cell-based
EpHA2 [4] = target: T2, EpHA2; test: NanoBRET target engagement; type: cell-based
MST2 = target: T4, MST2 (Homo sapiens, UniProt Q13188); test: biochemical
T4 sequence (Q13188 1-491): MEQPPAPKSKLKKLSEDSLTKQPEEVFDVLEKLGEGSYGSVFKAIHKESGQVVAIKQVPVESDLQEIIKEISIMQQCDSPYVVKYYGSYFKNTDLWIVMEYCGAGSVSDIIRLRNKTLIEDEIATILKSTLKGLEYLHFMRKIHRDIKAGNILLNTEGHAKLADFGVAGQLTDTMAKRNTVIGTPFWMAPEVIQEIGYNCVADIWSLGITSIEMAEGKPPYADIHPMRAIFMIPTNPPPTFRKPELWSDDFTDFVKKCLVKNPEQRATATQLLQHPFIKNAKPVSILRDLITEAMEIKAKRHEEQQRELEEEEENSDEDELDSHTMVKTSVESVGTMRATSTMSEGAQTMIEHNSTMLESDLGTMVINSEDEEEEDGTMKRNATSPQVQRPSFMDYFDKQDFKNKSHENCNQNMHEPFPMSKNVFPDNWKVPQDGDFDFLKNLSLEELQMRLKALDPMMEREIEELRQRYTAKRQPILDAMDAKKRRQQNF

MST4 = MST4 (Homo sapiens, UniProt Q9P289); test: biochemical
Erk3 = Erk3 (Homo sapiens, UniProt Q16659); test: biochemical
MSSK1 = MSSK1 (Homo sapiens, UniProt Q9UPE1); test: biochemical

T1 sequence (P00519 whole entry): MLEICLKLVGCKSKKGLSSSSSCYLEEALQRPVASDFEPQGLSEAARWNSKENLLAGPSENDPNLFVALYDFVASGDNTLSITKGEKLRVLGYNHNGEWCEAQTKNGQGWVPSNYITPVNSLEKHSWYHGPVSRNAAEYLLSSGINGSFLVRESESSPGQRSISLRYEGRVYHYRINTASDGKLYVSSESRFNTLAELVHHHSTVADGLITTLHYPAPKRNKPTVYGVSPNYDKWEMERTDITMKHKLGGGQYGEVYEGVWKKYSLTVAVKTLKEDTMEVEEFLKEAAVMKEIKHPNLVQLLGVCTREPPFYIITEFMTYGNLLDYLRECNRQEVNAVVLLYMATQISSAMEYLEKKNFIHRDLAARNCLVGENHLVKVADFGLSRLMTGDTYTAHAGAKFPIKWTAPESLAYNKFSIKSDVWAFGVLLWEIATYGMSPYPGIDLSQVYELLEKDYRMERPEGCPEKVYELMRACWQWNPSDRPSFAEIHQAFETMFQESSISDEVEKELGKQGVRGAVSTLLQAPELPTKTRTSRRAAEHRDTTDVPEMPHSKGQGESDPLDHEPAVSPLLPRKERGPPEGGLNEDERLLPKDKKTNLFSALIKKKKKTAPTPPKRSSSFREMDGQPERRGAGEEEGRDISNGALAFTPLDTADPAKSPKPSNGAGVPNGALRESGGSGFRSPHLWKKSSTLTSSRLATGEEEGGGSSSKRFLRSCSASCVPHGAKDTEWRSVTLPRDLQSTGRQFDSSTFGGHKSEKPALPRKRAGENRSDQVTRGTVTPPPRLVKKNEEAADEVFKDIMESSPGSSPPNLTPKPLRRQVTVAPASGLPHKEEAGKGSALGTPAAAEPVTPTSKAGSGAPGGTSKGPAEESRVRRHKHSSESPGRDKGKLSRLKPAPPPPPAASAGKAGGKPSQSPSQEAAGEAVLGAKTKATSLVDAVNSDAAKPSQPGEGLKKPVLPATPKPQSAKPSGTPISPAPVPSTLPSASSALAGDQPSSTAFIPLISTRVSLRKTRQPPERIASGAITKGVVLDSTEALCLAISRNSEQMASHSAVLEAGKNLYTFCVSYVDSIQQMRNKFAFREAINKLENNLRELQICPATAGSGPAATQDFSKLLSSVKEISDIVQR
Erk3, sequence (Q16659 whole entry): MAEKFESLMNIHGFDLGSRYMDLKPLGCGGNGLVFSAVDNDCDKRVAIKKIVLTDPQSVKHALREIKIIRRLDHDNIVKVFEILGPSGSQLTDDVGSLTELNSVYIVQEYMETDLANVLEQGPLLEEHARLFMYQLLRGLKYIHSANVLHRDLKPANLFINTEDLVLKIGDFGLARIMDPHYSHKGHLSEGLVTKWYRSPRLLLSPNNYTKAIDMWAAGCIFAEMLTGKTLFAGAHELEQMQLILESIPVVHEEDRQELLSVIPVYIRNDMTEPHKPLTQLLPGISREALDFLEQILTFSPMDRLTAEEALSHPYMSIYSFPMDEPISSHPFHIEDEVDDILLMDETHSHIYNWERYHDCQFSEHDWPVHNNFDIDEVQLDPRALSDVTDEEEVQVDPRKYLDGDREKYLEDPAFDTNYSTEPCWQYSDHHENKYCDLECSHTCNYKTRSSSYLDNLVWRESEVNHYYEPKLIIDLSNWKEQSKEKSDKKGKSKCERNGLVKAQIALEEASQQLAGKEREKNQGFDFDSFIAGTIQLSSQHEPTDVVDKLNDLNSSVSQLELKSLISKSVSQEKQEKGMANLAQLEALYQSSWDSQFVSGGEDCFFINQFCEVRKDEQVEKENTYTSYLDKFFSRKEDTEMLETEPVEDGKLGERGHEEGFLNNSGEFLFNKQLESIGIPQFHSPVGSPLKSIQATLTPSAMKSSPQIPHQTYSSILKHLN
EpHA5, sequence (P54756 25-1037): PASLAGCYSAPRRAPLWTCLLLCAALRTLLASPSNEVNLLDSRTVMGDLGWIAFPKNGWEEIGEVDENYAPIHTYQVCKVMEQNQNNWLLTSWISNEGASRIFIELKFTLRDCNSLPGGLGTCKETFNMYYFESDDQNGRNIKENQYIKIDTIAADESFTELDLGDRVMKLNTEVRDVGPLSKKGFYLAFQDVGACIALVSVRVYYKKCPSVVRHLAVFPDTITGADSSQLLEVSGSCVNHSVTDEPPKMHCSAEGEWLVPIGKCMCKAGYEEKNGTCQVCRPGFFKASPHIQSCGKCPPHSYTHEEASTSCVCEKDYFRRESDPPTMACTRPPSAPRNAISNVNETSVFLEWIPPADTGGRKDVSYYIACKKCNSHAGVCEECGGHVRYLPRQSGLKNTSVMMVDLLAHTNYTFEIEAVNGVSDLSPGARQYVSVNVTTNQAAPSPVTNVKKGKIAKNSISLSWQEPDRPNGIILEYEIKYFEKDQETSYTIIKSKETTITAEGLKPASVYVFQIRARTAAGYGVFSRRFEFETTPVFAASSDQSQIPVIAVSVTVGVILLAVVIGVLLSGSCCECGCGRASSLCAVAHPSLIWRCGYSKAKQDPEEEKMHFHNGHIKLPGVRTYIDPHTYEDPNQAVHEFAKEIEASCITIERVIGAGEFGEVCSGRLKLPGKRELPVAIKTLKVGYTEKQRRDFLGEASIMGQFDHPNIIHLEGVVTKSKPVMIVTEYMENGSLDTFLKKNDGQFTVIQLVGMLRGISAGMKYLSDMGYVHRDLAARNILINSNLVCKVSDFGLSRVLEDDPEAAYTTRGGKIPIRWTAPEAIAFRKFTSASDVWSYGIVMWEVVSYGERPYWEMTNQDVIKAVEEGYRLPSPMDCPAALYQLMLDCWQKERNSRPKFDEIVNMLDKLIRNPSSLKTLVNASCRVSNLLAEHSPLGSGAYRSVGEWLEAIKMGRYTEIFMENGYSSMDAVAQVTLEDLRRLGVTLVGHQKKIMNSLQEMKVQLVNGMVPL
EpHA4, sequence (P54764 20-986): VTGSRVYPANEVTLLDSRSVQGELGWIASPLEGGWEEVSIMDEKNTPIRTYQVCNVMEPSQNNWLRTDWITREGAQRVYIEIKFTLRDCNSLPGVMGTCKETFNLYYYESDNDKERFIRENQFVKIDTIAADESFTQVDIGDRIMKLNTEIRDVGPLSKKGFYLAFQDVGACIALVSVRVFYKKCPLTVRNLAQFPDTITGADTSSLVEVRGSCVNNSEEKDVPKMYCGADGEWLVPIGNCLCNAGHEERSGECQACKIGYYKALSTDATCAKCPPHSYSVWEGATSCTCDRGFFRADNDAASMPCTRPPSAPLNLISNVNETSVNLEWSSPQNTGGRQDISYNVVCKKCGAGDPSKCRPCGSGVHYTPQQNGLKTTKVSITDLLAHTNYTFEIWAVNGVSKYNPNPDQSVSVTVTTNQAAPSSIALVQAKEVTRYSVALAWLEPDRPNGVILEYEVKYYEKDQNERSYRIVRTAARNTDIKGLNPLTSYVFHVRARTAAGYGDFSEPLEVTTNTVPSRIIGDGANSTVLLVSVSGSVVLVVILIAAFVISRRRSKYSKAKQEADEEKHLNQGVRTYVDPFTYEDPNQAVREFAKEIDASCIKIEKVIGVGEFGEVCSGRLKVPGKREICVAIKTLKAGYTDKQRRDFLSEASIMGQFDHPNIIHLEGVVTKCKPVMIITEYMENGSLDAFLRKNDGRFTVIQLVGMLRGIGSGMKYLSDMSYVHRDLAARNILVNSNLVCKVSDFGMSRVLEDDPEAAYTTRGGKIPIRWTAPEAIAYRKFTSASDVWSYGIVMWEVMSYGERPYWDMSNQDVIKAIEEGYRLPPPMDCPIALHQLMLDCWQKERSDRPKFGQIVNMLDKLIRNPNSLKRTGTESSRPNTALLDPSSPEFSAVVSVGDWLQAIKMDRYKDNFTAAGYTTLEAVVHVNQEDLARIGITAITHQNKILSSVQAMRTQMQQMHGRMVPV

X-ray crystal structure (EpHA2 (kinase domain)): 8BIO (EpHA2-9 complex)
Compound: CNc1ncc2cc(-c3cc(C(F)(F)F)ccc3Cl)c(=O)n(CCCCN)c2n1 [compound 9, 8-(4-Aminobutyl)-6-(2-chloro-5-(trifluoromethyl)phenyl)-2-(methylamino)pyrido[2,3-d]pyrimidin-7(8H)-one]

IC50 (EpHA4): 0.346 ± 0.001 µM
IC50 (EpHA5): > 1 µM
IC50 (EpHA3): > 1 µM
IC50 (EpHB3): > 1 µM
IC50 (EpHB2): > 1 µM
IC50 (ABL1 [3]): > 1 µM
IC50 (EpHA2 [4]): > 1 µM
Compound: CNc1ncc2cc(-c3cc(Cl)ccc3Cl)c(=O)n(CCCCN)c2n1 [compound 8, 8-(4-Aminobutyl)-6-(2,5-dichlorophenyl)-2-(methylamino)pyrido[2,3-d]pyrimidin-7(8H)-one]

ΔTm at 10 µM (ABL1 [1]; read-out: dTm 6): 4.5 °C
ΔTm at 10 µM (EpHA2 [2]; read-out: dTm 6): 6.7 °C
ΔTm at 10 µM (MER; read-out: dTm 6): 0.1 °C
Compound: CNc1ncc2cc(-c3cc(Br)ccc3Cl)c(=O)n(CCCCN)c2n1 [compound 6, 8-(4-Aminobutyl)-6-(5-bromo-2-chlorophenyl)-2-(methylamino)pyrido[2,3-d]pyrimidin-7(8H)-one]

Further lines, the compound ahead of its results:

Compound: CNc1ncc2cc(-c3cc(Br)ccc3Cl)c(=O)n(C[C@H]3OC[C@H](N)CO3)c2n1 [compound 7, 8-(((2r,5r)-5-Amino-1,3-dioxan-2-yl)methyl)-6-(5-bromo-2-chlorophenyl)-2-(methylamino)pyrido[2,3-d]pyrimidin-7(8H)-one]
ΔTm at 10 µM (ABL1 [1]; read-out: dTm 7): 4.1 °C
ΔTm at 10 µM (EpHA2 [2]; read-out: dTm 7): 4.8 °C
ΔTm at 10 µM (MER; read-out: dTm 7): 0.2 °C

Compound: CNc1ncc2cc(-c3ccc(-c4cccc(C)n4)cc3Cl)c(=O)n(CC3OCC(N)CO3)c2n1 (stereo not shown) [compound 2, G-5555]
∆Tm G-5555 (2) (MST2; 10 µM, binder): 6.9 degC
∆Tm G-5555 (2) (MST4; 10 µM, binder): 6.1 degC
dTm G-5555 (2) (ABL1 [1]; 10 µM, binder): 5.1 °C
dTm G-5555 (2) (Erk3; 10 µM, binder): 0.3 °C
dTm G-5555 (2) (EpHA2 [2]; 10 µM, binder): 2.2 °C
dTm G-5555 (2) (MER; 10 µM, binder): 0.8 °C

Compound: CNc1ncc2cc(-c3cc(F)ccc3F)c(=O)n(CCCCN)c2n1 [compound 5, 8-(4-Aminobutyl)-6-(2,5-difluorophenyl)-2-(methylamino)pyrido[2,3-d]pyrimidin-7(8H)-one]
ΔTm at 10 µM (MST4; read-out: ∆Tm MR22 (5)): 1.4 °C
ΔTm at 10 µM (ABL1 [1]; read-out: dTm MR22 (5)): 6.9 °C
ΔTm at 10 µM (Erk3; read-out: dTm MR22 (5)): 0.5 °C
ΔTm at 10 µM (EpHA2 [2]; read-out: dTm MR22 (5)): 6.5 °C
ΔTm at 10 µM (MER; read-out: dTm MR22 (5)): -0.8 °C
ΔTm at 10 µM (MSSK1; read-out: dTm MR22 (5)): -0.1 °C

Compound: CNc1ncc2cc(-c3ccccc3Cl)c(=O)n(CCCCN)c2n1 [compound 4, 8-(4-Aminobutyl)-6-(2-chlorophenyl)-2-(methylamino)pyrido[2,3-d]pyrimidin-7(8H)-one]
ΔTm at 10 µM (MST2; read-out: ∆Tm MR21 (4)): 1 °C
IC50 (EpHA4): 0.066 ± 0.038 µM
IC50 (EpHA5): 0.928 ± 0.006 µM
IC50 (EpHA3): 0.313 ± 0.121 µM
IC50 (EpHB3): > 1 µM
ΔTm at 10 µM (ABL1 [1]; read-out: dTm MR21 (4)): 9.2 °C
ΔTm at 10 µM (MER; read-out: dTm MR21 (4)): 2.8 °C
ΔTm at 10 µM (MSSK1; read-out: dTm MR21 (4)): 0.2 °C
IC50 (EpHB2): > 1 µM
IC50 (ABL1 [3]): > 1 µM
IC50 (EpHA2 [4]): 0.21 ± 0.036 µM
